According to US20090215752A1, “Compounds, preparation and therapeutic use thereof” (priority 2005, published 2009):

How the values were obtained:
5-HT transporter = biological target: T1, 5-HT transporter (Homo sapiens, UniProt P31645); assay: Serotonergic transporter binding ([3H]imipramine); details: [3H]imipramine 2 nM, HEK-293 recombinant, read-out: percentage inhibition at 10 μM of control specific binding to the serotonergic transporter
T1 construct: expressed in transfected cells; host or cells: HEK-293
Procedure: The serotonergic 5-HT transporter was isolated from human recombinant HEK-293 cells according to the method described by Tatsumi et al. (1997), Pharmacological profile of antidepressants and related compounds at human monoamine transporters, Eur. J. Pharmacol., 340: 249-258.
Serotonergic transporter binding was determined by a radioligand method using tritium-labelled imipramine (2 nM) as substrate (Tatsumi et al., 1999). Ligand radioactivity was determined by liquid scintillation counting. Ligand incubations were carried out for thirty minutes at 22° C. The experiment was conducted in duplicate.
The specific ligand binding to the serotonergic transporter was defined as the difference between the total binding and the non specific binding determined in presence of an excess of unlabelled ligand. The results obtained are presented in Table 3 hereinbelow and are expressed as percent of control specific binding and as a percent inhibition of control specific binding obtained in presence of 10 μM of substance.

PDE1 = assay: Selectivity: inhibition of PDE1 (radioenzymatic assay); assay type: biochemical, bovine; details: Table 2
Procedure: (§1) 2.1.1. Isolation of Phosphodiesterases from Smooth Muscle A 3 g segment of bovine aortic media cut into pieces with scissors was homogenized with an ultra-turrax then a potter glass/glass homogenizer in 7 volumes by weight of buffer A containing a protease inhibitor cocktail (20 mM Tris-HCl, 0.25 M saccharose, 2 mM magnesium acetate, 1 mM dithiothreitol, 5 mM EGTA, 2000 U/ml aprotinin, 10 mg/l leupeptin and 10 mg/l soya trypsic inhibitor). The homogenizate was centrifuged at 105,000 g for 1 hour. The supernatant was loaded on a DEAE-Sephacel column (15×1.6 cm) pre-equilibrated with buffer B (buffer A without the saccharose, EGTA and protease inhibitors). The column was washed until there was no detectable absorption at 280 nm, then eluted with a linear gradient of NaCl (0-0.5 M) in buffer B. 3-ml fractions were collected and enzyme activity was determined under the conditions described hereinbelow to localize the different enzymes PDE1, PDE3, PDE4 and PDE5 which were aliquoted and frozen at −80° C. (Lugnier et al., Biochem. Phamacol., 1986, 35: 1746-1751). […]
(§2) Cyclic nucleotide phosphodiesterase activity was determined by a radioenzymatic method using tritium-labelled cyclic GMP or AMP (1 μM) as substrate (Lugnier et al., 1986). ^3H-labelled adenosine or guanosine monophosphate formed by hydrolysis of the radiolabelled cyclic nucleotide was then converted to ^3H-labelled adenosine or guanosine in a second reaction with one nucleotidase in excess. […] Nucleoside radioactivity was determined by liquid scintillation counting. […]
(§3) The activity of the compounds was evaluated on other phosphodiesterase isoforms, particularly basal state or calmodulin-activated PDE1 from vascular smooth muscle, PDE3, PDE4 and PDE5 from vascular smooth muscle. The results obtained are presented in Tables 1 and 2 hereinbelow and are expressed as the percentage inhibition of enzymatic activity produced by […] of the test compound.

PDE4 = assay: Selectivity: inhibition of PDE4 (radioenzymatic assay); assay type: biochemical, bovine; details: Table 2
Procedure: 2.1.1. Isolation of Phosphodiesterases from Smooth Muscle A 3 g segment of bovine aortic media cut into pieces with scissors was homogenized with an ultra-turrax then a potter glass/glass homogenizer in 7 volumes by weight of buffer A containing a protease inhibitor cocktail (20 mM Tris-HCl, 0.25 M saccharose, 2 mM magnesium acetate, 1 mM dithiothreitol, 5 mM EGTA, 2000 U/ml aprotinin, 10 mg/l leupeptin and 10 mg/l soya trypsic inhibitor). The homogenizate was centrifuged at 105,000 g for 1 hour. The supernatant was loaded on a DEAE-Sephacel column (15×1.6 cm) pre-equilibrated with buffer B (buffer A without the saccharose, EGTA and protease inhibitors). The column was washed until there was no detectable absorption at 280 nm, then eluted with a linear gradient of NaCl (0-0.5 M) in buffer B. 3-ml fractions were collected and enzyme activity was determined under the conditions described hereinbelow to localize the different enzymes PDE1, PDE3, PDE4 and PDE5 which were aliquoted and frozen at −80° C. (Lugnier et al., Biochem. Phamacol., 1986, 35: 1746-1751). PDE2 was isolated from human platelets, provided by Etablissement Français du Sang-Alsace, according to Kameni Tcheudji J F et al., (J. Mol. Biol. 2001; 310: 181-791), and stored until use at −80° C. in small aliquots.
Cyclic nucleotide phosphodiesterase activity was determined by a radioenzymatic method using tritium-labelled cyclic GMP or AMP (1 μM) as substrate (Lugnier et al., 1986). ^3H-labelled adenosine or guanosine monophosphate formed by hydrolysis of the radiolabelled cyclic nucleotide was then converted to ^3H-labelled adenosine or guanosine in a second reaction with […] in excess. The nucleoside formed was separated from the nucleotides by anion exchange chromatography. Nucleoside radioactivity was determined by liquid scintillation counting. Enzymatic incubations were carried out under conditions allowing no more than 15% hydrolysis of the substrate; each point was performed in duplicate.
as §3

PDE3 = biological target: T2, PDE3 (Bos taurus, UniProt A0A3Q1M1E8); assay: Selectivity: inhibition of PDE3 (radioenzymatic assay); assay type: biochemical, bovine; details: Table 2; 10 μM compound; read-out: PDE3 percentage inhibition at 10 μM
T2 sequence (A0A3Q1M1E8 1-1126): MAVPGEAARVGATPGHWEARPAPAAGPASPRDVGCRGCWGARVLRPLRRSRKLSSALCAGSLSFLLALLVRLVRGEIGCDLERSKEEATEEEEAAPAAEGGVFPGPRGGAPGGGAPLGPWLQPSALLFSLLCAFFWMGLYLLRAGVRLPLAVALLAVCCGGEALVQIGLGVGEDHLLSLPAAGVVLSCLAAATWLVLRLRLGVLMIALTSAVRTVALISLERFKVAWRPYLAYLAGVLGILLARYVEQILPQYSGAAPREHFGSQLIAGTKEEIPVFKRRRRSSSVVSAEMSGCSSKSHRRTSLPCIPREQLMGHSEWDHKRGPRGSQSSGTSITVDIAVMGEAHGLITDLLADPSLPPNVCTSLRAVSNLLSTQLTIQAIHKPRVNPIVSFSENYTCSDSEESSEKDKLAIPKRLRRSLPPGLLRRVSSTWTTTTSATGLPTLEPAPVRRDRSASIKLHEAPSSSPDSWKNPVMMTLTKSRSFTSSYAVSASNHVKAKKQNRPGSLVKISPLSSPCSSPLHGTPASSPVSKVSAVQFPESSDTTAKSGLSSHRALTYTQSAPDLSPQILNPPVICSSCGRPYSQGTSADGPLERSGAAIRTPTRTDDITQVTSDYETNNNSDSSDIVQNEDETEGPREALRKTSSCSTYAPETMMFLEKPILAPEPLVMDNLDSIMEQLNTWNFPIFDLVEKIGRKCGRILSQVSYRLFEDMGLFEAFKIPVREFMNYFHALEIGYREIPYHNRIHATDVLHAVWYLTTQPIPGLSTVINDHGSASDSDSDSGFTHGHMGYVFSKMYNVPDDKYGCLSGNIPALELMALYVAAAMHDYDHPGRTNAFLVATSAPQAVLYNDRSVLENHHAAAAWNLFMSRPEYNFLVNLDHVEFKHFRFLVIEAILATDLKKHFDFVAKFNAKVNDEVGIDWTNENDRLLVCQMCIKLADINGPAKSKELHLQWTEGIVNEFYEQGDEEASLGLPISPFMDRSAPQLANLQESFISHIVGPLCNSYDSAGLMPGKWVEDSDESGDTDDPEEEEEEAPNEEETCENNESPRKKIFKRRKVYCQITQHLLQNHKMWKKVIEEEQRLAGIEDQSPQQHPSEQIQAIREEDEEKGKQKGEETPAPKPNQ
Procedure: as §1, §2, §3

T1 sequence (P31645 whole entry): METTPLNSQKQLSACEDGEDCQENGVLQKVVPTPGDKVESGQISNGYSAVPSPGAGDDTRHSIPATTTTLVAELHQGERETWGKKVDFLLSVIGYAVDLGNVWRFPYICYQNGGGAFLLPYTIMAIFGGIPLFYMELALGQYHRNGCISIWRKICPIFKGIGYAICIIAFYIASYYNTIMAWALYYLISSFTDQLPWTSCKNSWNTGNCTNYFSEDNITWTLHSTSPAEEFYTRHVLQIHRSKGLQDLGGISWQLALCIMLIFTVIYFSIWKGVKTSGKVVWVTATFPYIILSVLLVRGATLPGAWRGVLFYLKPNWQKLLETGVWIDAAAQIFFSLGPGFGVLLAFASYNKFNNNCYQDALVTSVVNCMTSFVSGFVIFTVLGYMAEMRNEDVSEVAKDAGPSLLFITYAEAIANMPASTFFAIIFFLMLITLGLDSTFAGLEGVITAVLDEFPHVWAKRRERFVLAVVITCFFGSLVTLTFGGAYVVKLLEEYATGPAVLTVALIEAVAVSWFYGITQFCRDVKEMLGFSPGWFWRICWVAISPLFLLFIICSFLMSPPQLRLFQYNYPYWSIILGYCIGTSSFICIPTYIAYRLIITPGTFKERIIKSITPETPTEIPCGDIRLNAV

COc1cc2c(c(OC)c1-c1ccccc1)C(c1cccc(C(N)=O)c1)=NCC(=O)N2C [Compound 17, 3-(6,8-Dimethoxy-1-methyl-2-oxo-7-phenyl-2,3-dihydro-1H-benzo[e][1,4]diazepin-5-yl)-benzamide]
inhibition at 10 µM (5-HT transporter): 98% | PDE1 percentage inhibition at 10 μM (PDE1; 10 μM compound): 22% | IC50 (PDE1; value in square brackets): 37 µM | PDE4 percentage inhibition at 10 μM (PDE4; 10 μM compound): 23% | IC50 (PDE4; value in square brackets): 47 µM | inhibition at 10 µM (PDE3): 20%
